The compounds below were run on primary hepatocytes isolated from rats (assay: Hepatocyte protective effect against doxorubicin treatment (cell viability, WST-1)). Conditions: Hepatocyte, primary rat hepatocytes pretreated with compound for 30 min, viability by WST-1 after 24-48 hours.
Type: cell-based
Protocol: Various endogenous/exogenous attacks on cells trigger the mechanisms of cell death which is broadly classified into two types—i.e., apoptosis or necrosis. Using these cell death mechanisms, in the present experimental example, primary hepatocytes isolated from rats were treated with drugs which were clinically shown to result in serious side-effects of hepatocyte toxicity or various chemicals which derive cell death, and the compounds synthesized in the Examples were estimated for their hepatocyte protective effects, after 24-48 hours. The substances used to cause hepatocyte death include CCl4, ActD, H2O2, doxorubicin, anti-Fas Ab/Actinomycin D, acetaminophen, EtOH, CdCl2, palmitate, stearate, cyclophosphamide, terfenadine, diclofenac, simvastatin, and adefovir. Primary hepatocytes were isolated using the method of Seglen P O (Experimental Cell Research 74 (1972), pp. 450-454). Briefly, hepatocytes were isolated according to the two-step collagenase perfusion method, and dead cells were removed by low speed (500 rpm) centrifugation for 10 min using percoll gradient (Kreamer B L et al., In Vitro Cellular & Developmental Biology 22 (1986), pp. 201-211). During this step, the viability of cells was maintained 90% or above. The cells were suspended in HepatoZYME media (Gibco BRL), and the number of cells was counted. 1.5×10^4 cells in 100 μl were placed into the collagen-coated 96-well plate (BD Biocoat), and adhered on the bottom for 3-4 hours.
In order to assess the hepatocyte protective effect, the above adhered cells were pretreated with the Example compounds for 30 min. At this time, the concentration of the Example compounds was serially diluted by 2-fold or 3-fold over 5 steps starting from 30 μM, 10 μM or 1 μM depending on the experiments, and the final concentration of DMSO was adjusted to 0.2%. 30 min after the treatment by the compounds, the cells were treated by the substances causing hepatocyte death or hepatotoxic drugs at the concentrations indicated in Table 1. After 24-48 hours, the viability of cells was determined to estimate the hepatocyte protective effect. The viability of cells was determined using the WST-1 (MK-400, Takeda) method by the absorbance at 440 nm. Hepatocyte protective effects of the Example compounds were represented by “EC50” which was calculated from measured values. “EC50” herein means the concentration of the compound at which 50% of maximum protective effect is observed in the experiment.

Compound	EC50 [nM]
Cc1cc(NC2CCCC2)c2[nH]c(CN3CCS(=O)(=O)CC3)cc2c1 [Example 8, Cyclopentyl-[2-(1,1-dioxothiomorpholin-4-ylmethyl)-5-methyl-1H-indol-7-yl]-amine]	240
Cc1cc(NCC2CCOCC2)c2[nH]c(CN3CCS(=O)(=O)CC3)cc2c1 [Example 7, [2-(1,1-Dioxothiomorpholin-4-ylmethyl)-5-methyl-1H-indol-7-yl]-(tetrahydropyran-4-ylmethyl)-amine]	440
O=C1CN(CCc2cc3cc(Cl)cc(NCc4ccccc4)c3[nH]2)CCN1 [Example 14, 4-[2-(7-Benzylamino-5-chloro-1H-indol-2-yl)-ethyl]-piperazin-2-one]	300
O=C1CN(Cc2cc3cc(Cl)cc(NC4CCCC4)c3[nH]2)CCN1 [Example 1, 4-(5-Chloro-7-cyclopentylamino-1H-indol-2-ylmethyl)-piperazin-2-one]	160
Clc1cc(NC2CCCC2)c2[nH]c(C3CCNCC3)cc2c1 [Example 48, (5-Chloro-2-piperidin-4-yl-1H-indol-7-yl)-cyclopentyl-amine]	210
O=C1CN(CCc2cc3cc(Cl)cc(NCC4CCOCC4)c3[nH]2)CCN1 [Example 22, 4-(2-{5-Chloro-7-[(tetrahydropyran-4-ylmethyl)-amino]-1H-indol-2-yl}-ethyl)-piperazin-2-one]	900
CC(=O)N1CCC(Nc2cc(Cl)cc3cc(CCN4CCNC(=O)C4)[nH]c23)CC1 [Example 3, 4-{2-[7-(1-Acetyl-piperidin-4-ylamino)-5-chloro-1H-indol-2-yl]-ethyl}-piperazin-2-one]	270
O=S1(=O)CCN(CCc2cc3cc(Cl)cc(NC4CCCC4)c3[nH]2)CC1 [Example 19, {5-Chloro-2-[2-(1,1-dioxothiomorpholin-4-yl)-ethyl]-1H-indol-7-yl}-cyclopentyl-amine]	270

Same assay, conditions: primary rat hepatocytes pretreated with compound for 30 min, viability by WST-1 after 24-48 hours

Compound	EC50 [nM]
CS(=O)(=O)N1CCC(Nc2cc(Cl)cc3cc(CCN4CCn5c(nnc5C(F)(F)F)C4)[nH]c23)CC1 [Example 12]	600
4-[5-Methyl-7-(tetrahydropyran-4-ylmethylamino)-1H-indol-2-ylmethyl)-piperazin-2-one [Example 9]	250
O=S1(=O)CCN(CCc2cc3cc(Cl)cc(NC4CCOCC4)c3[nH]2)CC1 [Example 18]	240
1-(4-{5-Chloro-2-[2-(3-trifluoromethyl-5,6,7,8-tetrahydro-[1,2,4]triazolo[4,3-a]pyrazin-1-yl)-ethyl]-1H-indol-7-yl}-piperidin-1-yl)-ethanone [Example 13]	1800
